Drawing on patent US12624034B2, “Non-covalent modifiers of AKT1 and uses thereof” (Terremoto Biosciences, Inc., priority 2023, dated 2026), this text covers IC50 for 17 compounds.

For one assay, the target named is T1, AKT1 E17K (Homo sapiens, UniProt P31749, E17K).
T1 construct: expressed in transfected cells; host or cells: HEK293
In words: Live cell AKT1 E17K target engagement by NanoBRET competitive probe displacement in HEK293 cells. It is filed as binding. The note with it: 2 h at 37° C. As to the method: Determining live cell AKT1 E17K, AKT1 WT, and AKT2 target engagement by NanoBRET competitive probe displacement. Live cell target engagement assays were performed as described (Vasta, J. D. et al. Cell Chem Biol 2018, 25(11), 206-214). Briefly, HEK293 cells were transfected with plasmids encoding kinase-NanoLuciferase fusion proteins overnight. Cells were then treated with serial dilutions of compound and an ˜EC50 concentration of fluorescently-tagged ATP-competitive tracer (Promega). After incubation for 2 h at 37° C., luciferase substrate and extracellular luciferase inhibitor were added to all wells, and luminescent intensity at 460 nm and 600 nm were measured on a multimode plate-reader. The ratio of E600/E460 was calculated to give the tracer engagement signal (BRET). IC50 values were calculated by fitting BRET values to a log(inhibitor) vs. response Hill equation.
On the technique in general: Bioluminescence resonance energy transfer reports proximity on the nanometre scale.

In a further assay the target is T2, AKT2 (Homo sapiens, UniProt P31751).
T2 construct: expressed in transfected cells; host or cells: HEK293
In words: Live cell AKT2 target engagement by NanoBRET competitive probe displacement in HEK293 cells. It is filed as binding. Conditions: 2 h at 37° C., read-out: AKT2 IC50.

The target of another assay is T3, AKT1 WT (Homo sapiens, UniProt P31749).
T3 construct: expressed in transfected cells; host or cells: HEK293
The experiment in a line: Live cell AKT1 WT target engagement by NanoBRET competitive probe displacement in HEK293 cells. Format: binding. The note with it: 2 h at 37° C., read-out: AKT1 WT IC50.

Assay [1] concerns LAPC4 prostate cancer cells, which express the AKT1 E17K allele. In words: Antiproliferative effects in LAPC4 cells (CellTiter Glo, 72 h). It is filed as cell-based. The note with it: Homo sapiens, LAPC4, 72 h, read-out: LAPC4 proliferation IC50. The method, then: Antiproliferative Effects in LAPC4 Cells.
LAPC4 prostate cancer cells (Klein, K. A. et al. Nat Med 1997, 3, 402-408), which express the AKT1 E17K allele, were grown in IMDM media (Hyclone) supplemented with 12% FBS+1% P/S. To assess compound effects on growth, 1,000 cells/well were seeded in 384 well assay plates, incubated with compound dilutions dissolved in DMSO. After 72 h, intracellular ATP content was assessed with CellTiter Glo reagent (Promega) according to the manufacturer's instructions. IC50 values were calculated by fitting luminescence values to a log(inhibitor) vs. response Hill equation.
In general terms: In ATP-based viability assays light output follows the ATP content of the culture.

[2] abbreviates: NanoBRET live cell target engagement, HEK293 cells.
Where [3] appears, read: NanoBRET competitive probe displacement, live HEK293 cells.

Where two headings read alike, the source gives them in different places.

T2 sequence (P31751 whole entry): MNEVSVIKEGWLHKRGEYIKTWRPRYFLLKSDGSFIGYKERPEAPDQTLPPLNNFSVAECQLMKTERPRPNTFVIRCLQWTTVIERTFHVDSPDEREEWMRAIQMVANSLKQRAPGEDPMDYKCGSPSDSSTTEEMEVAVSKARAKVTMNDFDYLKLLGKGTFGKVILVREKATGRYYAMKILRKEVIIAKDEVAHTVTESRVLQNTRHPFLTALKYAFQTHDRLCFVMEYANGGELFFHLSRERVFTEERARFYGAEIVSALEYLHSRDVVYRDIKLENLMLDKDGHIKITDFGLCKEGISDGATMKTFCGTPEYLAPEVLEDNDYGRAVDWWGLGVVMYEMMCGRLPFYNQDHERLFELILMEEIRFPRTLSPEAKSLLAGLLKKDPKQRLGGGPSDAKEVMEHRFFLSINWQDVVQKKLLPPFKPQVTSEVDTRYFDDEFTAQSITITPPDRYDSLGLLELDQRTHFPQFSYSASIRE
T1 sequence (P31749 whole entry E17K): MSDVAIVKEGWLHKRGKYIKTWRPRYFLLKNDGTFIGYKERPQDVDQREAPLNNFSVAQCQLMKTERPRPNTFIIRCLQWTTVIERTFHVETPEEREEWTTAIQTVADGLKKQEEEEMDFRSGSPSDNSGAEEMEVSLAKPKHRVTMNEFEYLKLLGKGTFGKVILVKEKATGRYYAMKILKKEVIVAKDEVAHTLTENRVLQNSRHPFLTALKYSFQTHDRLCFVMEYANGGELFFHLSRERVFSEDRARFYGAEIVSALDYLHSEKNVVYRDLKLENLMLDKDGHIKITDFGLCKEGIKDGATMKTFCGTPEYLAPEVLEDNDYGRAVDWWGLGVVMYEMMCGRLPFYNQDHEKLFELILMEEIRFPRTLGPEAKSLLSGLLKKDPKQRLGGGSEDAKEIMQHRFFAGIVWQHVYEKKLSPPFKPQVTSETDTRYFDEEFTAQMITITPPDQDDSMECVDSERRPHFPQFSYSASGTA
T3 sequence (P31749 whole entry): as the sequence (P31749 whole entry E17K) above, with K17E counted along it

On to `Nc1ncccc1-c1nc2ccc(-n3cccn3)nc2n1-c1ccc2c(c1)CC[C@@H]2NC(=O)c1ccc(O)c(F)c1` [Compound 16, (S)—N-(5-(2-(2-aminopyridin-3-yl)-5-(1H-pyrazol-1-yl)-3H-imidazo[4,5-b]pyridin-3-yl)-2,3-dihydro-1H-inden-1-yl)-3-fluoro-4-hydroxybenzamide], for which the IC50 at AKT1 E17K (setting [2]) was 0.0102 µM; on AKT2 (setting [2]), 0.0665 µM; at AKT1 WT (setting [2]), 0.00241 µM; in assay [1] it was 0.56 µM.
For `Cn1cc(C(=O)N[C@H]2CCc3cc(-n4c(-c5cccnc5N)nc5ccc(-n6cccn6)nc54)ccc32)ccc1=O` [Compound 24, (S)—N-(5-(2-(2-aminopyridin-3-yl)-5-(1H-pyrazol-1-yl)-3H-imidazo[4,5-b]pyridin-3-yl)-2,3-dihydro-1H-inden-1-yl)-1-methyl-6-oxo-1,6-dihydropyridine-3-carboxamide], the IC50 turned out to be 0.232 µM at AKT1 E17K (setting [2]), 0.846 µM at AKT2 (setting [2]), 0.0551 µM on AKT1 WT (setting [2]) and 6.36 µM in assay [1].
As for `Nc1ncccc1-c1nc2ccc(-n3cccn3)nc2n1-c1ccc2c(c1)CC[C@@H]2NC(=O)c1ccc(C(F)F)cc1` [Compound 61, (S)—N-(5-(2-(2-aminopyridin-3-yl)-5-(1H-pyrazol-1-yl)-3H-imidazo[4,5-b]pyridin-3-yl)-2,3-dihydro-1H-inden-1-yl)-4-(difluoromethyl)benzamide], the IC50 on AKT1 E17K (setting [2]) was 0.0726 µM; on AKT2 (setting [2]), 0.0497 µM; at AKT1 WT (setting [2]), 0.00475 µM; in assay [1] it was 0.921 µM.
Take `Nc1ncccc1-c1nc2ccc(-n3cccn3)nc2n1-c1ccc2c(c1)CC[C@@H]2NC1CCN(c2ccccn2)CC1` [Compound 277]: the IC50 on AKT1 E17K (setting [2]) is 0.365 µM; at AKT2 (setting [2]), 0.486 µM; at AKT1 WT (setting [2]), 0.0251 µM; in assay [1], 2.44 µM.
For `Cc1ccc(C(=O)N[C@H]2CCc3cc(-n4c(-c5cccnc5N)nc5ccc(-n6cccn6)nc54)ccc32)cn1` [Compound 26, (S)—N-(5-(2-(2-aminopyridin-3-yl)-5-(1H-pyrazol-1-yl)-3H-imidazo[4,5-b]pyridin-3-yl)-2,3-dihydro-1H-inden-1-yl)-6-methylnicotinamide], the IC50 at AKT1 E17K (setting [2]) was 0.0268 µM; at AKT2 (setting [2]), 0.0696 µM; on AKT1 WT (setting [2]), 0.00646 µM; in assay [1], 1.06 µM.
For `Nc1ncccc1-c1nc2ccc(-n3nccn3)nc2n1-c1ccc2c(c1)CC[C@@H]2NC(=O)c1cnc(C(F)F)s1` [Compound 427], the IC50 is 0.101 µM on AKT1 E17K (setting [3]), 1.08 µM on AKT2 (setting [3]), 0.00956 µM at AKT1 WT (setting [3]) and 1.71 µM in assay [1].
For `Nc1ncccc1-c1nc2ccc(-n3cccn3)nc2n1-c1ccc2c(c1)CC[C@@H]2N` [Example 2, (S)-3-(3-(1-amino-2,3-dihydro-1H-inden-5-yl)-5-(1H-pyrazol-1-yl)-3H-imidazo[4,5-b]pyridin-2-yl)pyridin-2-amine], the IC50 on AKT1 E17K (setting [2]) was over 1 µM; on AKT2 (setting [2]) it was 0.858 µM; at AKT1 WT (setting [2]) it was 0.0619 µM; in assay [1], 8.98 µM.
As for `COC1(C(F)F)CC(C(=O)N[C@H]2CCc3cc(-n4c(-c5cccnc5N)nc5ccc(-n6cccn6)nc54)ccc32)C1` (single isomer, unassigned) [Compound 10], the IC50 at AKT1 E17K (setting [2]) is over 1 µM; at AKT2 (setting [2]), over 10 µM; at AKT1 WT (setting [2]), 0.39 µM; in assay [1], over 10 µM.
For the compound `Nc1ncccc1-c1nc2ccc(-n3cccn3)nc2n1-c1ccc2c(c1)CC[C@@H]2NC(=O)c1ccncc1` [Compound 35, N-[(1S)-5-[2-(2-aminopyridin-3-yl)-5-(pyrazol-1-yl)imidazo[4,5-b]pyridin-3-yl]-2,3-dihydro-1H-inden-1-yl]pyridine-4-carboxamide], the IC50 on AKT1 E17K (setting [2]) turned out to be 0.143 µM; on AKT2 (setting [2]) it was 0.0986 µM; at AKT1 WT (setting [2]), 0.0142 µM; in assay [1], 1.75 µM.
For `Nc1ncccc1-c1nc2ccc(-n3cccn3)nc2n1-c1ccc2c(c1)CC[C@@H]2NC1CCN(C(=O)C2CC2)CC1` [Compound 279], the IC50 on AKT1 E17K (setting [2]) is over 1 µM; on AKT2 (setting [2]), 2.4 µM; at AKT1 WT (setting [2]), 0.0454 µM; in assay [1], 9.36 µM.
`Nc1ncccc1-c1nc2ccc(-n3cccn3)nc2n1-c1ccc2c(c1)CC[C@@H]2NC(=O)c1cnc(C(F)F)c(F)c1` [Compound 62, (S)—N-(5-(2-(2-aminopyridin-3-yl)-5-(1H-pyrazol-1-yl)-3H-imidazo[4,5-b]pyridin-3-yl)-2,3-dihydro-1H-inden-1-yl)-6-(difluoromethyl)-5-fluoronicotinamide]: the IC50 was 0.064 µM at AKT1 E17K (setting [2]), 0.0595 µM on AKT2 (setting [2]), 0.00497 µM at AKT1 WT (setting [2]) and 0.692 µM in assay [1].
`CN(C)c1ccc(F)c(C(=O)N[C@H]2CCc3cc(-n4c(-c5cccnc5N)nc5ccc(-n6cccn6)nc54)ccc32)c1` [Compound 7, N—{(S)-5-[2-(2-amino-3-pyridyl)-5-(1-pyrazolyl)-3H-1,3,4-triazainden-3-yl]-1-indanyl}5-(dimethylamino)-2-fluorobenzamide]: the IC50 amounted to 0.32 µM on AKT1 E17K (setting [2]), 0.118 µM at AKT2 (setting [2]), 0.00729 µM at AKT1 WT (setting [2]) and 2.6 µM in assay [1].
As for `Cc1cc(C(=O)N[C@H]2CCc3cc(-n4c(-c5cccnc5N)nc5ccc(-n6cccn6)nc54)ccc32)n[nH]1` [Compound 4, (S)—N-(5-(2-(2-aminopyridin-3-yl)-5-(1H-pyrazol-1-yl)-3H-imidazo[4,5-b]pyridin-3-yl)-2,3-dihydro-1H-inden-1-yl)-5-methyl-11H-pyrazole-3-carboxamide], the IC50 at AKT1 E17K (setting [2]) came to 0.172 µM; at AKT2 (setting [2]), 0.295 µM; at AKT1 WT (setting [2]) it was 0.0197 µM; in assay [1], 1.77 µM.
Consider `Nc1ncccc1-c1nc2ccc(-n3cccn3)nc2n1-c1ccc2c(c1)CC[C@@H]2NC1CN(C(=O)C2CC2)C1` [Compound 441], for which the IC50 was over 1 µM at AKT1 E17K (setting [3]), 1.34 µM on AKT2 (setting [3]), 0.0217 µM on AKT1 WT (setting [3]) and 3.71 µM in assay [1].
The like results for `O=C(N[C@H]1CCc2cc(-n3c(-c4ccccc4)nc4ccc(-c5ccn(C6CC6)n5)nc43)ccc21)c1ccc(C(F)F)nc1` [Compound 432] were, in that order, 0.145 µM, 1.45 µM, 0.0146 µM and 3.5 µM.
With `Cc1cc(C(=O)N[C@H]2CCc3cc(-n4c(-c5cccnc5N)nc5ccc(-n6cccn6)nc54)ccc32)cnc1C(F)F` [Compound 60, (S)—N-(5-(2-(2-aminopyridin-3-yl)-5-(1H-pyrazol-1-yl)-3H-imidazo[4,5-b]pyridin-3-yl)-2,3-dihydro-1H-inden-1-yl)-6-(difluoromethyl)-5-methylnicotinamide], the IC50 came out at 0.0621 µM on AKT1 E17K (setting [2]), 0.0315 µM at AKT2 (setting [2]), 0.0025 µM at AKT1 WT (setting [2]) and 0.741 µM in assay [1].
As for `COc1cc(C(=O)N[C@H]2CCc3cc(-n4c(-c5cccnc5N)nc5ccc(-n6cccn6)nc54)ccc32)ccn1` [Compound 25, (S)—N-(5-(2-(2-aminopyridin-3-yl)-5-(1H-pyrazol-1-yl)-3H-imidazo[4,5-b]pyridin-3-yl)-2,3-dihydro-1H-inden-1-yl)-2-methoxyisonicotinamide], the IC50 is 0.00743 µM at AKT1 E17K (setting [2]), 0.00984 µM at AKT2 (setting [2]), 0.00211 µM on AKT1 WT (setting [2]) and 0.576 µM in assay [1].
